Results as given in publication PMC10763615, “Identification and engineering of potent cyclic peptides with selective or promiscuous binding through biochemical profiling and bioinformatic data analysis” (RSC Chemical Biology, 2023).
Like-named read-outs stand apart in the source and are kept apart here. Positions of bridges follow the written chain, without caps; N, C: chain ends. Residues, ends and D or L forms follow the SMILES beside them.

Tests used:
Type in all cases: binding
FGF-R4 ECD = target: T1, FGF-R4 ECD (Homo sapiens, UniProt P22455); test: single concentration BLI of crude peptides
T1 construct: DNA constructs for the extracellular domain (ECD) of human FGF-; HPC4 (C); made in house; host or cells: HEK 293-6E
T1 sequence (P22455 22-369 limits assumed): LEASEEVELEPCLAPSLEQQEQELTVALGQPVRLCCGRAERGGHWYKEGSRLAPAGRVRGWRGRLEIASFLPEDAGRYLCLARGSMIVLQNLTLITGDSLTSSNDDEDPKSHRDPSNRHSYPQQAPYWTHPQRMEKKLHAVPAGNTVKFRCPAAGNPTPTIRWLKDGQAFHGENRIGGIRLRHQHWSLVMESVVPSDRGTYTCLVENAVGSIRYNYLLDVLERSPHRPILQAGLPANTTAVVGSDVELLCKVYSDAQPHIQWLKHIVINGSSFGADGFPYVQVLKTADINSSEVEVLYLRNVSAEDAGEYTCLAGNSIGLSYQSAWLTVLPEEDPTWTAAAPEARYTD
In short: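 Streptavidin biosensors carrying biotinylated FGF receptor ECD were immersed in peptide (~1 μM for crude single-point runs, a concentration series for purified peptides) and then in peptide-free buffer. KD was obtained by fitting the BLI association and dissociation curves.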

FGF-R1C ECD = target: T2, FGF-R1C ECD (Homo sapiens, UniProt P11362); test: biochemical; design: DNA constructs for the extracellular domain (ECD) of human FGF-; HPC4 (C); made in house; host or cells: HEK 293-6E
T2 sequence (P11362 22-376 limits assumed): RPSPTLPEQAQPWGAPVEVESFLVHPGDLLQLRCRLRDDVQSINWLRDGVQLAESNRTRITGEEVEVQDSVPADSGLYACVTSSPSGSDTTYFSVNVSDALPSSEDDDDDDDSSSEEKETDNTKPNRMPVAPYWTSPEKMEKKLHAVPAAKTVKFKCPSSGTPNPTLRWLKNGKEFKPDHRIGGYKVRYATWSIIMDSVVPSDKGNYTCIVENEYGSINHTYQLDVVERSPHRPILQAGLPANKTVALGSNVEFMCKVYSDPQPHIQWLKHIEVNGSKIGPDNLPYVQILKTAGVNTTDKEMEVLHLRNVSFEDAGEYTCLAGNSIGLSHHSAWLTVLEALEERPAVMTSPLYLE
In short: (§1)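 Biotinylated FGF-R ECD on streptavidin biosensors was dipped into ~1 μM crude peptide in PBS pH7.4 with 0.05% Tween-20 and 0.01% BSA for association, then into buffer for dissociation, and followed by BLI. Fitted KD values were adjusted for peptide concentration measured by UPLC-CAD.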

FGF-R3C ECD = target: T3, FGF-R3C ECD (Homo sapiens, UniProt P22607); test: biochemical; design: DNA constructs for the extracellular domain (ECD) of human FGF-; HPC4 (C); made in house; host or cells: HEK 293-6E
T3 sequence (P22607 23-375 limits assumed): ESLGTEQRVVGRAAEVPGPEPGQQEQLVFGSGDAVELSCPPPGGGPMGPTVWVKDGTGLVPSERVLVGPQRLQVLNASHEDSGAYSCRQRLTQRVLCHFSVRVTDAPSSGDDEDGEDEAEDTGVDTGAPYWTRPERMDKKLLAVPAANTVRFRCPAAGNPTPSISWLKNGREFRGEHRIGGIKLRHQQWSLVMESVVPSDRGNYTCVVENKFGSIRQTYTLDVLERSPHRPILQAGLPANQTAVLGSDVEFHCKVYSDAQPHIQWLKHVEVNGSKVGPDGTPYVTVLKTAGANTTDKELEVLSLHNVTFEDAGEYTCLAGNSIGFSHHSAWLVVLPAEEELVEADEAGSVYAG
In short: as §1

[1] = crude T18 selection 1 (1:1:1) peptides, single concentration BLI (Table S4), read-out: KD (4)

SMILES | Kd (FGF-R4 ECD; crude NNK peptides, single concentration BLI (Table S3), read-out: KD (4)) [µM] | Kd (FGF-R1C ECD) [µM] | Kd (FGF-R3C ECD) [µM] | Kd (FGF-R4 ECD; [1]) [µM] | Kd (FGF-R4 ECD) [µM]
CC[C@H](C)[C@@H]1NC(=O)[C@H](CCCCN)NC(=O)[C@H](Cc2ccc(O)cc2)NC(=O)[C@H]([C@@H](C)CC)NC(=O)[C@H]([C@@H](C)O)NC(=O)[C@H]([C@@H](C)CC)NC(=O)[C@H](Cc2c[nH]cn2)NC(=O)[C@@H](NC(=O)[C@H](CCSC)NC(C)=O)CSSC[C@@H](C(=O)NCC(=O)N[C@@H](CO)C(=O)NCC(=O)N[C@@H](CO)C(=O)N[C@@H](CC(=O)O)C(=O)N[C@@H](Cc2ccc(O)cc2)C(=O)N[C@@H](CCCCN)C(=O)N[C@@H](CC(=O)O)C(=O)N[C@@H](CC(=O)O)C(=O)N[C@@H](CC(=O)O)C(=O)N[C@@H](CC(=O)O)C(=O)N[C@@H](CCCCN)C(N)=O)NC(=O)[C@H](Cc2ccc(O)cc2)NC(=O)[C@H](CCCNC(=N)N)NC(=O)[C@H](CC(C)C)NC1=O (Ac-MCHITIYKILRYCGSGSDYKDDDDK-NH2; disulfide 2-13) | 0.124 | > 10 | > 10 |  | 
CSCC[C@H](NC(C)=O)C(=O)N[C@H]1CSSC[C@@H](C(=O)NCC(=O)N[C@@H](CO)C(=O)NCC(=O)N[C@@H](CO)C(=O)N[C@@H](CC(=O)O)C(=O)N[C@@H](Cc2ccc(O)cc2)C(=O)N[C@@H](CCCCN)C(=O)N[C@@H](CC(=O)O)C(=O)N[C@@H](CC(=O)O)C(=O)N[C@@H](CC(=O)O)C(=O)N[C@@H](CC(=O)O)C(=O)N[C@@H](CCCCN)C(N)=O)NC(=O)[C@H](CO)NC(=O)[C@H](Cc2c[nH]cn2)NC(=O)[C@H](Cc2ccccc2)NC(=O)[C@H](CC(C)C)NC(=O)[C@H](CCCCN)NC(=O)[C@H](Cc2ccc(O)cc2)NC(=O)[C@H](Cc2ccc(O)cc2)NC(=O)[C@H](CC(C)C)NC(=O)[C@H](CC(C)C)NC(=O)[C@H](Cc2c[nH]cn2)NC1=O (Ac-MCHLLYYKLFHSCGSGSDYKDDDDK-NH2; disulfide 2-13) |  | 0.063 | > 10 | 0.114 | 
CSCC[C@H](NC(C)=O)C(=O)N[C@H]1CSSC[C@@H](C(=O)NCC(=O)N[C@@H](CO)C(=O)NCC(=O)N[C@@H](CO)C(=O)N[C@@H](CCC(=O)O)C(=O)N[C@@H](CCC(=O)O)C(=O)NCC(=O)N[C@@H](CO)C(=O)NCC(=O)N[C@@H](CO)C(=O)N[C@@H](CC(=O)O)C(=O)N[C@@H](Cc2ccc(O)cc2)C(=O)N[C@@H](CCCCN)C(=O)N[C@@H](CC(=O)O)C(=O)N[C@@H](CC(=O)O)C(=O)N[C@@H](CC(=O)O)C(=O)N[C@@H](CC(=O)O)C(=O)N[C@@H](CCCCN)C(N)=O)NC(=O)[C@H](CO)NC(=O)[C@H](Cc2c[nH]cn2)NC(=O)[C@H](Cc2ccccc2)NC(=O)[C@H](CC(C)C)NC(=O)[C@H](CCCNC(=N)N)NC(=O)[C@H](Cc2c[nH]c3ccccc23)NC(=O)[C@H](Cc2ccc(O)cc2)NC(=O)[C@H](Cc2ccc(O)cc2)NC(=O)[C@H](CC(C)C)NC(=O)[C@H](Cc2c[nH]cn2)NC(=O)[C@H](CCCNC(=N)N)NC(=O)[C@H](Cc2c[nH]cn2)NC1=O (Ac-MCHRHLYYWRLFHSCGSGSEEGSGSDYKDDDDK-NH2; disulfide 2-15) |  | > 10 | > 10 | 0.005 | 
CC[C@H](C)[C@@H]1NC(=O)[C@H](Cc2ccc(O)cc2)NC(=O)[C@H](CCCNC(=N)N)NC(=O)[C@H](Cc2c[nH]cn2)NC(=O)[C@@H](NC(=O)[C@H](CCSC)NC(C)=O)CSSC[C@@H](C(=O)NCC(=O)N[C@@H](CO)C(=O)NCC(=O)N[C@@H](CO)C(=O)N[C@@H](CC(=O)O)C(=O)N[C@@H](Cc2ccc(O)cc2)C(=O)N[C@@H](CCCCN)C(=O)N[C@@H](CC(=O)O)C(=O)N[C@@H](CC(=O)O)C(=O)N[C@@H](CC(=O)O)C(=O)N[C@@H](CC(=O)O)C(=O)N[C@@H](CCCCN)C(N)=O)NC(=O)[C@H](Cc2c[nH]cn2)NC(=O)[C@H](Cc2c[nH]c3ccccc23)NC(=O)[C@H](Cc2ccc(O)cc2)NC(=O)[C@H](CC(=O)O)NC(=O)[C@H](CC(C)C)NC(=O)[C@H](Cc2ccc(O)cc2)NC1=O (Ac-MCHRYIYLDYWHCGSGSDYKDDDDK-NH2; disulfide 2-13) |  | > 10 | > 10 |  | 0.044
